Test results from PubChem BioAssay AID2060902 (Molecular Pharmacology Branch, DTP, NCI, 2025).

Tested on: 485368-065-R3-J5-PDC spheroids with HUVEC/MSC, viability
Test: Anticancer human tumor 485368-065-R3-J5-PDC patient-derived pancreatic carcinoma cell line growth inhibition [RAS]
Conditions: for IC50: curve of first compound; for viability, T/C: stronger effect = lower value
Text: RAS pathway inhibitors in Combinations in Complex Spheroids
A high-throughput screen of multi-cell type tumor spheroids was designed to identify active combinations of RAS pathway inhibitors and targeted small molecules. Complex spheroids include a stromal component modeled by human endothelial cells (HUVEC) and fibroblasts modeled by human mesenchymal stem cells (MSCs). The concentration ranges selected for each drug and investigational agent were based upon clinically achievable concentrations if the clinical Cmax of the agent was known.
Compounds. The drugs and investigational agents: abemaciclib (NSC768073), cobimetinib (NSC768068), divarasib (GDC6063, NSC841802), docetaxel (NSC628503), GDC-1971 (RLY-1971, NSC841576), gemcitabine (NSC613327), inavolisib (NSC800729), ipatasertib (NSC767898), KB-0742 (NSC834161), MRTX-1133 (NSC836407), osimertinib (NSC779217), RMC-4630 (NSC839698), RMC-6236 (NSC851965), RMC-6291 (NSC852671), Ro-3306 (NSC812927), sapanisertib (NSC764658), SN-38 (NSC673596), staurosporine (NSC755774), SY5609 (NSC837396), and tovorafenib (DAY101, NSC766906), were obtained from the National Cancer Institute (NCI) Developmental Therapeutics Program Chemical Repository. The FDA-approved anticancer drug set is available from the NCI Developmental Therapeutics Program. […] The stock solutions were prepared in dimethyl sulfoxide (DMSO, Sigma-Aldrich, St. Louis, MO, cat. D2650) at 800-fold the tested concentration and stored at -70 degrees C prior to their use. All drugs and investigational agents were tested over a range starting from a high concentration at or near the clinical Cmax and decreasing in half-log increments. If the clinical Cmax for an agent had not been determined, the highest concentration tested was 10 microM.
Cell Culture. All cells were maintained in an incubator at 37 degrees C and 5% CO2 with 95% humidity. The PDC lines were cultured according to standard operating procedures established by the NCI PDMR. All PDCs were thawed and cultured in Matrigel-coated flasks prepared with a working solution of 1X Ham's F-12 nutrient mix, without supplementation (Invitrogen, Waltham, MA, cat. 11765054), 100 U/mL penicillin-streptomycin (Invitrogen, cat. 15140122), and 2.5% Matrigel (Corning Inc., Corning, NY, cat. 354248) for the first three passages. The 362531-283-R-J2-PDC and 782815-120-R-J1-PDC lines were cultured in 6C/Colon 1B media, which includes advanced DMEM/F-12 (Thermo Fisher Scientific, cat. 12634028), 10 mM HEPES (Thermo Fisher Scientific, cat. 15630080), 1X GlutaMAX supplement (Thermo Fisher Scientific, cat. 35050061), 0.1 mg/mL primocin (InvivoGen, San Diego, CA, cat. ant-pm-2), 10% defined fetal bovine serum, heat inactivated (HyClone Laboratories Inc., Logan, UT, cat. SH30070.03HI), 50% L-WRN conditioned media (ATCC, cat. CRL-3276), 1.25 mM N-Acetyl-L-cysteine (Sigma-Aldrich, cat. A9165), 10 mM nicotinamide (Sigma-Aldrich, cat. N0636), 1X B-27 supplement (Thermo Fisher Scientific, cat. 17504044), 1X N-2 supplement (Thermo Fisher Scientific, cat. 17502048), 50 ng/mL human EGF (Thermo Fisher Scientific, cat. PHG0311), and 10 microM Y-27632 dihydrochloride (Tocris Bioscience, cat. 1254). The K12877-001-R-J1-PDC line was cultured in 6I media, which includes all 6C/Colon 1B media plus 10 ng/mL human FGF-10 (PeproTech, cat. 100-26), 1 ng/mL human FGF-2 (PeproTech, cat. 100-18B), 1 µM prostaglandin E2 (Tocris Bioscience, cat. 2296), […] hydrocortisone (Sigma-Aldrich, cat. H4001), and […] bovine insulin (Sigma-Aldrich, cat. I6634). The K86415-001-R-J1-PDC line was cultured in 6D media, which includes all 6C/Colon 1B media components minus the L-WRN conditioned media. The 485176-168-R4-J1-PDC was cultured in PANC media, which includes all 6C/Colon 1B media plus 100 ng/mL human FGF-10 (PeproTech, cat. 100-26), 500 nM SB-431542 (Selleckchem, cat. S1067), and 10 nM gastrin (Tocris Bioscience, cat. 3006). […]

[1] = second compound 0.0316 µM, first compound 0.0316 µM
[2] = second compound 0.0316 µM, first compound 0.1 µM
[3] = second compound 0.0316 µM, first compound 0.316 µM
[4] = second compound 0.0316 µM, first compound 1 µM
[5] = second compound 0.1 µM, first compound 0.0316 µM
[6] = second compound 0.1 µM, first compound 0.1 µM
[7] = second compound 0.1 µM, first compound 0.316 µM
[8] = second compound 0.1 µM, first compound 1 µM
[9] = second compound 0.316 µM, first compound 0.0316 µM
[10] = second compound 0.316 µM, first compound 0.1 µM
[11] = second compound 0.316 µM, first compound 0.316 µM
[12] = second compound 0.316 µM, first compound 1 µM
[13] = second compound 1 µM, first compound 0.0316 µM
[14] = second compound 1 µM, first compound 0.1 µM
[15] = second compound 1 µM, first compound 0.316 µM
[16] = second compound 1 µM, first compound 1 µM
[17] = second compound 3.16 µM, first compound 0.0316 µM
[18] = second compound 3.16 µM, first compound 0.1 µM
[19] = second compound 3.16 µM, first compound 0.316 µM
[20] = second compound 3.16 µM, first compound 1 µM
[21] = second compound 10 µM, first compound 0.0316 µM
[22] = second compound 10 µM, first compound 0.1 µM
[23] = second compound 10 µM, first compound 0.316 µM
[24] = second compound 10 µM, first compound 1 µM
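Note: spheroids exposed to agents for seven days before readout.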

## CC1(O)CCCC1n1c(=O)c(C(F)F)cc2cnc(NC3CCN(S(C)(=O)=O)CC3)nc21 (centres undefined) + C#Cc1c(F)ccc2cc(O)cc(-c3ncc4c(N5CC6CCC(C5)N6)nc(OCC56CCCN5CC(F)C6)nc4c3F)c12
Second compound 0.0316 µM
  IC50: 562 nM
Second compound 0.1 µM
  IC50: 314 nM
Second compound 0.316 µM
  IC50: 504 nM
Second compound 1 µM
  IC50: 344 nM
Second compound 3.16 µM
  IC50: 131 nM
Second compound 10 µM
  IC50: < 31.6 nM
[1]
  viability, T/C: 94.1%
[2]
  viability, T/C: 62.8%
[3]
  viability, T/C: 53.2%
[4]
  viability, T/C: 46.5%
Second compound 0.0316 µM, first compound 3.16 µM
  viability, T/C: 39.4%
Second compound 0.0316 µM, first compound 10 µM
  viability, T/C: 11.2%
[5]
  viability, T/C: 103%
[6]
  viability, T/C: 66.4%
[7]
  viability, T/C: 44.9%
[8]
  viability, T/C: 40.8%
Second compound 0.1 µM, first compound 3.16 µM
  viability, T/C: 39.9%
Second compound 0.1 µM, first compound 10 µM
  viability, T/C: 10.9%
[9]
  viability, T/C: 84.6%
[10]
  viability, T/C: 71.1%
[11]
  viability, T/C: 46%
[12]
  viability, T/C: 39%
Second compound 0.316 µM, first compound 3.16 µM
  viability, T/C: 47.1%
Second compound 0.316 µM, first compound 10 µM
  viability, T/C: 11.9%
[13]
  viability, T/C: 90%
[14]
  viability, T/C: 63.4%
[15]
  viability, T/C: 41%
[16]
  viability, T/C: 44.2%
Second compound 1 µM, first compound 3.16 µM
  viability, T/C: 40.4%
Second compound 1 µM, first compound 10 µM
  viability, T/C: 13.3%
[17]
  viability, T/C: 65.8%
[18]
  viability, T/C: 46.8%
[19]
  viability, T/C: 38.8%
[20]
  viability, T/C: 34.4%
Second compound 3.16 µM, first compound 3.16 µM
  viability, T/C: 35.8%
Second compound 3.16 µM, first compound 10 µM
  viability, T/C: 9.18%
[21]
  viability, T/C: 36.9%
[22]
  viability, T/C: 32.6%
[23]
  viability, T/C: 28.6%
[24]
  viability, T/C: 30.9%
Second compound 10 µM, first compound 3.16 µM
  viability, T/C: 31.9%
Second compound 10 µM, first compound 10 µM
  viability, T/C: 6.8%

## CCN1CCN(Cc2ccc(Nc3ncc(F)c(-c4cc(F)c5nc(C)n(C(C)C)c5c4)n3)nc2)CC1 + C#Cc1c(F)ccc2cc(O)cc(-c3ncc4c(N5CC6CCC(C5)N6)nc(OCC56CCCN5CC(F)C6)nc4c3F)c12
Second compound 0.0316 µM
  IC50: 457 nM
Second compound 0.1 µM
  IC50: 313 nM
Second compound 0.316 µM
  IC50: 435 nM
Second compound 1 µM
  IC50: 179 nM
Second compound 3.16 µM
  IC50: 47.1 nM
Second compound 10 µM
  IC50: < 3.16 nM
Second compound 0.0316 µM, first compound 0.00316 µM
  viability, T/C: 101%
Second compound 0.0316 µM, first compound 0.01 µM
  viability, T/C: 87%
[1]
  viability, T/C: 82.8%
[2]
  viability, T/C: 72.5%
[3]
  viability, T/C: 50.9%
[4]
  viability, T/C: 41.4%
Second compound 0.1 µM, first compound 0.00316 µM
  viability, T/C: 98.2%
Second compound 0.1 µM, first compound 0.01 µM
  viability, T/C: 96.7%
[5]
  viability, T/C: 76.1%
[6]
  viability, T/C: 65.9%
[7]
  viability, T/C: 50.1%
[8]
  viability, T/C: 39.8%
Second compound 0.316 µM, first compound 0.00316 µM
  viability, T/C: 94.4%
Second compound 0.316 µM, first compound 0.01 µM
  viability, T/C: 85.9%
[9]
  viability, T/C: 76.2%
[10]
  viability, T/C: 72.1%
[11]
  viability, T/C: 50.4%
[12]
  viability, T/C: 40.6%
Second compound 1 µM, first compound 0.00316 µM
  viability, T/C: 78.5%
Second compound 1 µM, first compound 0.01 µM
  viability, T/C: 83.8%
[13]
  viability, T/C: 75.1%
[14]
  viability, T/C: 59.4%
[15]
  viability, T/C: 40.1%
[16]
  viability, T/C: 40%
Second compound 3.16 µM, first compound 0.00316 µM
  viability, T/C: 69.4%
Second compound 3.16 µM, first compound 0.01 µM
  viability, T/C: 63.9%
[17]
  viability, T/C: 49.7%
[18]
  viability, T/C: 47.5%
[19]
  viability, T/C: 36.5%
[20]
  viability, T/C: 33.8%
Second compound 10 µM, first compound 0.00316 µM
  viability, T/C: 48.8%
Second compound 10 µM, first compound 0.01 µM
  viability, T/C: 37.2%
[21]
  viability, T/C: 31.4%
[22]
  viability, T/C: 30.3%
[23]
  viability, T/C: 29.9%
[24]
  viability, T/C: 28.3%
